Values quoted from earlier work, collected in patent US9821060B2, “Heat-sensitive nanoparticle system” (FONDAZIONE ISTITUTO ITALIANO DI TECNOLOGIA, priority 2013, dated 2017).

Settings: in water

## CC(C)(N=NC(C)(C)C(=O)NCCC(=O)O)C(=O)NCCC(=O)O.O [VA057, 2,2′Azobis-[N-(2-carboxyethyl)-2-methylpropionamide]hydrate]
  half-life temperature at 10 hours: 57 °C
